These results are taken from patent US8354400B2, “Benzoxazole compounds and methods of use” (Eisai R&D Co., Ltd., priority 2008, dated 2013).

The subject of series [1] is serum IL-6 after s.c. oligo CpG 1668 challenge. In words: In vivo short term CpG stimulation assay (serum IL-6). Also noted: species or system mice. To be noted: for suppression of IL-6 (Table 3): 1.5 hours after oral administration of 20 mg/kg; for inhibition in vivo at 20 mg/kg: Mus musculus, po, 2 h, mice, oral in water, s.c. 30 micrograms oligo CpG 1668 within 90 minutes, serum two hours later, repeat assays separated by commas, read-out: Percent short-term IL-6 suppression. As for the experimental part:
Short Term CpG Stimulation Assay: Compounds identified as having potency in the HEK/TLR9 and splenocyte CpG 1668 assays described in Example 9, above, were tested in an in vivo short term CpG stimulation assay. Mice were orally administered compound in water, and challenged within 90 minutes by subcutaneous (s.c.) injection of 30 micrograms of oligo CpG 1668. Two hours later serum was taken and assayed for IL-6 using ELISA analysis. Results from assays repeated on different dates are set forth as multiple numbers separated by commas.

A further series addresses T1, human TLR9 (Homo sapiens, UniProt Q9NR96).
T1 construct: expressed in transfected cells; host or cells: HEK293 (ATCC No. CRP-1573 [sic])
T1 sequence (Q9NR96 26-1032): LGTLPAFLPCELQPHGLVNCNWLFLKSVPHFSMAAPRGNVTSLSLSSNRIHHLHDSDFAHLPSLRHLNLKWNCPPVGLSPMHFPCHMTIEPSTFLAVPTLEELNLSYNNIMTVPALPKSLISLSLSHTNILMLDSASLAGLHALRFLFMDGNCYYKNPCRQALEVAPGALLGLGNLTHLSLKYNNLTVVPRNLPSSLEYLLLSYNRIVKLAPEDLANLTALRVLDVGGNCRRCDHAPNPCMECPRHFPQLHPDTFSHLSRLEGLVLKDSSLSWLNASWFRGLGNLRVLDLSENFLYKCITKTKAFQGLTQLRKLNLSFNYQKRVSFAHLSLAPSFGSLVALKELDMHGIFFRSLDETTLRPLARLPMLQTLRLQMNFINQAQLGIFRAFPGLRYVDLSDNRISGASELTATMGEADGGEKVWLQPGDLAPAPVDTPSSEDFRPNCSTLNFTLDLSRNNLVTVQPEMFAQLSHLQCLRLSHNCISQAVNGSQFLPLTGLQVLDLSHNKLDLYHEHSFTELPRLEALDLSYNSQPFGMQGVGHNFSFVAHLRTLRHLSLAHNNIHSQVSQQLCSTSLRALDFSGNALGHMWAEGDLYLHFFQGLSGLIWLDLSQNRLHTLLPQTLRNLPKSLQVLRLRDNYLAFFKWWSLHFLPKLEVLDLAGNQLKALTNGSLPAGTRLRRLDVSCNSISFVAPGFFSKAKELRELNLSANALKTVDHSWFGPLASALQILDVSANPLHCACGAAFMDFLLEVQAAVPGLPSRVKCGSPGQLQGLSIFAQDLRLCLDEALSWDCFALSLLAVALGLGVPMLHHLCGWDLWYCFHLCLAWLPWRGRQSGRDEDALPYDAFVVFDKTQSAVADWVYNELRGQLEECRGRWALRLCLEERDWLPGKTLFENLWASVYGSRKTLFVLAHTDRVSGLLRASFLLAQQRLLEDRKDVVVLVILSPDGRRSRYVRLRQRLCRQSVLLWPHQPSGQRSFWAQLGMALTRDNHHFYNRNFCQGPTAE
In words: Primary assay: HEK/TLR9 activation (NF-kB luciferase reporter, Oligo CpG 2006 stimulation). It is filed as cell-based. The conditions noted are these: HEK293 transfected with human TLR9 and NF-kB luciferase; compound 30 min before Oligo CpG 2006; overnight; read-out: HEK/TLR9 IC50. From the text: A. Primary Assay. The primary assay involved transfecting human embryonic kidney epithelial (HEK) cells with TLR9. More specifically, HEK293 […] cells (ATCC No. CRP-1573, American Type Culture Collection, Manassas, Va.) were transfected with pcDNA3.1D/V5-His-TOPO® plasmid (Invitrogen, Carlsbad, Calif.) encoding human TLR9 (directly inserted as a Tag polymerase-amplified PCR product) and firefly luciferase under the control of three NF-kB binding sites contained in the E-selectin-1 promoter, which was cloned into a pGL3-Enhancer Vector (Promega Corp, Madison, Wis.). Each compound was added to cells 30 min. before stimulation with Oligo CpG 2006, a synthetic phosphorothioate oligonucleotide (Hartmann et al., J Immunol. 164:1617-24 (2000)), with nucleotide sequence 5′-TCGTCGTTTTGTCGTTTTGTCGTT-3′ (SEQ ID NO:1). The cells were incubated overnight at 37° C. The luciferase substrate Steady-Glo® (Promega) was added to the wells, and luminescence was measured to determine the extent of TLR9-driven gene activation. The luminescence data was used to calculate an IC50 for each sample. The IC50 is defined as the concentration of compound that suppresses the luminescence to 50% of that observed in the absence of compound, in other words, with full stimulation.
A general note: In a reporter assay the amount or activity of a reporter protein is the signal.

Series [2] relates to lymph node IL-6 release on CpG 1668 stimulation. The series can be described thus: Lymph node response: in vivo dosing, ex vivo CpG 1668 stimulation, IL-6 ELISA. Also noted: species or system mice. To be noted: for IL-6 release in the lymph nodes: mice, oral 20 mg/kg or 60 mg/kg daily for two weeks, ex vivo CpG 1668 1 μg/ml 72 hrs. As to the method: Mice were orally administered one of those two compounds or hydroxychloroquine (“HCQ”) at either 20 mg/kg or 60 mg/kg daily for two weeks. After in vivo dosing, lymph nodes were removed and stimulated in vitro with CpG 1668 at 1 μg/ml for 72 hrs, after which supernatants were removed and assayed by ELISA for IL-6. Levels of dosing are indicated after each compound name appearing in the Figure.

For another series, the system named is NZBWF1/J mice. In words: NZBWF1/J spontaneous lupus model. It is filed as in vivo. To be noted: for anti-dsDNA: 16 weeks of treatment, 20 mg/kg or 60 mg/kg p.o.; for body weight: after 3 to 4 months of dosing; for distribution of ANA scores: after 12 weeks of treatment. As to the method:
An in vivo study of Compound 23 and Compound 30 was conducted in an NZBWF1/J mouse model. Mice were obtained from Jackson Laboratories, divided into groups of 12, and dosed orally with compounds in water five days a week beginning at 5 months of age.

Series [3] has as its system human PBMC α-interferon response to Oligo CpG 2216. In words: PBMC CpG 2216 assay (α-interferon ELISA). The format is cell-based. To be noted: Oligo CpG 2216, 72 hrs, read-out: PBMC CpG2216 IC50. As to the method:
(4) PBMC CpG 2216 Assay: A subset of compounds tested as described above were also assayed for suppression of human peripheral blood mononuclear cells (PBMC) α-interferon response to stimulation with Oligo CpG 2216, a synthetic oligo phosphorothioate/phosphodiester oligonucleotide (Vollmer et al. Eur J. Immunol. 34:251-62 (2004)), with nucleotide sequence 5′-ggG GGA CGA TCG TCg ggg gG-3′ (small letters indicate phosphorothioate linkages, all others are phosphodiester) (SEQ ID NO:3). Each compound was added to […] from healthy volunteer donors before addition of stimulatory oligonucleotide. Cells were stimulated in culture for 72 hrs and the supernatant was removed for ELISA analysis of α-interferon level was performed using a VeriKine™ Human IFN-Alpha ELISA kit (Pestka Biomedical Laboratories, N.J.).
Background: An ELISA detects its analyte on a solid surface through an enzyme-linked reagent.

Entries after “also recorded” stand apart in the source; their conditions may differ.

Regarding `CN1CCCN(CCCOc2ccc(-c3nc4ccc(OCCCN5CCCN(C)CC5)cc4o3)cc2)CC1` [Compound 14], in series [1], the “suppression of IL-6 (Table 3)” value is on record as “No suppression” and the inhibition in vivo at 20 mg/kg was found to be 0%. Also, the IC50 at human TLR9 came out at 0.0056 µM.

For the compound `c1cc(-c2nc3ccc(OCCCN4CCCC4)cc3o2)ccc1OCCCN1CCCC1` [Compound 23], the “IL-6 release in the lymph nodes, low dose” value in series [2] (20 mg/kg oral daily for two weeks) was “particularly high levels of suppression”. In addition, the “IL-6 release in the lymph nodes” value in series [2] is on record as “suppressed IL-6 release”. Moreover, in series [1], the inhibition in vivo at 20 mg/kg worked out at 91%. For the same compound, on human TLR9, the IC50 was 0.0111 µM. Besides, in the series on NZBWF1/J mice (NZB/W mice), the proteinuria entry is “no effect”. In the series with NZBWF1/J mice (NZBWF1/J mice), the “histological examination of muscle, brain, kidney and spleen (hematoxylin and eosin)” value was “no obvious pathology”; the anti-dsDNA entry is recorded as “Neither of the compounds tested in this study, Compound 23 or Compound 30, showed an effect on anti-dsDNA; also recorded: no effect”; the body weight entry is “dose-related weight loss”; the “distribution of ANA scores” value is on record as “no effect”. Further, in series [3], the IC50 came to 0.6 µM.

For the compound `c1cc(-c2nc3ccc(OCCCN4CCC(N5CCCC5)CC4)cc3o2)ccc1OCCCN1CCC(N2CCCC2)CC1` [Compound 20], the “suppression of IL-6 (Table 3)” value in series [1] is on record as “No suppression”. Besides, the inhibition in vivo at 20 mg/kg in series [1] is 0%. The values for the IC50 (at human TLR9; in series [3]) were 0.0125 µM and 0.7 µM, respectively.

Regarding `CN(C)CCN(C)CCCOc1ccc(-c2nc3ccc(OCCCN(C)CCN(C)C)cc3o2)cc1` [Compound 22], the inhibition in vivo at 20 mg/kg in series [1] turned out to be 36%. In addition, the IC50 on human TLR9 amounted to 0.0087 µM.

In the case of `c1cc(-c2nc3ccc(OCCCN4CCCCC4)cc3o2)ccc1OCCCN1CCCCC1` [Compound 30], the inhibition in vivo at 20 mg/kg in series [1] worked out at 93%. Also, the IC50 on human TLR9 turned out to be 0.0121 µM. In the series on NZBWF1/J mice (NZBWF1/J mice), the “histological examination of muscle, brain, kidney and spleen (hematoxylin and eosin)” value was “no obvious pathology”; the anti-dsDNA entry is reported as “Neither of the compounds tested in this study, Compound 23 or Compound 30, showed an effect on anti-dsDNA”; the body weight entry is on record as “dose-related weight loss”; the “distribution of ANA scores” value is given as “no effect”. Also, the “anti-dsDNA at high dose” value in the series with NZBWF1/J mice (NZBWF1/J mice, 60 mg/kg p.o.) is on record as “some suppression of anti-dsDNA at the high dose of 60 mg/kg, but, this was not statistically significant”. Further, the IC50 in series [3] stood at 0.5 µM.

Consider `CN1CCN(c2ccc(CNCCCOc3ccc(-c4nc5ccc(OCCCNCc6ccc(N7CCN(C)CC7)cc6)cc5o4)cc3)cc2)CC1` [Compound 11], for which the IC50 turned out to be 0.0048 µM at human TLR9 and 0.6 µM in series [3].

With `CN(C)CCCN(C)CCCOc1ccc(-c2nc3ccc(OCCCN(C)CCCN(C)C)cc3o2)cc1` [Compound 27], in series [1], the inhibition in vivo at 20 mg/kg came out at 30%. The IC50 at human TLR9 came out at 0.0034 µM.

Turning to `CN(C)CCCOc1ccc(-c2nc3ccc(OCCCN(C)C)cc3o2)cc1` [Compound 2], the “IL-6 release in the lymph nodes” value in series [2] was “suppressed IL-6 release”. In addition, the IC50 at human TLR9 was found to be 0.0154 µM; in series [3], 0.5 µM.

With `CCN(CC)CCN(C)CCCOc1ccc(-c2nc3ccc(OCCCN(C)CCN(CC)CC)cc3o2)cc1` [Compound 31], the figures for the IC50 (at human TLR9; in series [3]) were 0.0072 µM and 0.2 µM, respectively.

For the compound `CCN(CC)CCNCCCOc1ccc(-c2nc3ccc(OCCCNCCN(CC)CC)cc3o2)cc1` [Compound 12], the IC50 at human TLR9 came to 0.0058 µM; in series [3], 0.5 µM.

As to `CN(C)[C@@H]1CCN(CCCOc2ccc(-c3nc4ccc(OCCCN5CC[C@@H](N(C)C)C5)cc4o3)cc2)C1` [Compound 16], the inhibition in vivo at 20 mg/kg in series [1] came out at 50%. The figures for the IC50 (on human TLR9; in series [3]) were 0.0055 µM and 0.4 µM, respectively.

Regarding `c1cc(CN2CCOCC2)ccc1CNCCCOc1ccc(-c2nc3ccc(OCCCNCc4ccc(CN5CCOCC5)cc4)cc3o2)cc1` [Compound 13], the inhibition in vivo at 20 mg/kg in series [1] is 40%. In addition, on human TLR9, the IC50 was 0.0071 µM.
